pKi: −log10 of the molar value. Like-named read-outs stand apart in the source and are kept apart here.
Legend:
[1] = biological target: T1, human serotonin 5-HT7 receptor subtype (Homo sapiens, UniProt P34969); assay: Binding affinity for 5-HT7 receptor ([3H]-5-CT displacement, membrane fraction of expressing cells); conditions: for Ki: human 5-HT7 expressing cultured cells, 1 nM [3H]-5-CT, Ki calculated from IC50, read-out: Ki (nM) of 5-HT7
T1 construct: expressed in transfected cells
Procedure: Binding Affinity for 5-HT7 Receptor
Cultured cells capable of expressing human serotonin 5-HT7 receptor subtype were collected in an assay buffer (50 mM Tris-HCl, pH 7.4, containing […], 0.2 mM EDTA, 0.001% pargyline and 0.1% ascorbic acid) and homogenized with a Potter type homogenizer. Then the membrane fraction was subjected to 20 minutes of centrifugation at 39,000 g and at 4° C. The thus obtained pellet was re-suspended in 1 ml (per cells per one culture dish of 10 cm in diameter) of the assay buffer and homogenized again. This test was carried out on 1 nM in final concentration of [^3H]-5-CT (carboxamide triptamine) and 1 to 1, 000 nM of the compounds of Examples 1 to 90 represented by the general formula (I). A 100 μl of the membrane fraction was added to the reaction tube, final assay volume was adjusted to 500 μl, and the reaction was carried out by incubating the medium at 37° C. for 15 minutes. The incubation was terminated by quickly filtering the reaction system on a GF/B filter which was subsequently washed with 6 ml of cold 50 mM Tris-HCl (pH 7.4). Radioactivity was measured using Packard liquid scintillation counter. Non-specific binding was determined by 10 μM metergoline, and the specific binding was calculated based on the difference. IC50 value of each compound was determined by non-linear least square regression analysis, and dissociation constant Ki was calculated from the value.

[2] = biological target: T2, 5-HT2 receptor (Rattus norvegicus, UniProt P14842); assay: Binding affinity for 5-HT2 receptor ([3H]ketanserin displacement, rat cerebral cortex P2 fraction); conditions: 1 nM [3H]ketanserin, Ki calculated from IC50
T2 construct: the thus obtained precipitate was used as P2 fraction; from tissue; host or cells: rat cerebral cortex, P2 membrane fraction
T2 sequence (P14842 whole entry): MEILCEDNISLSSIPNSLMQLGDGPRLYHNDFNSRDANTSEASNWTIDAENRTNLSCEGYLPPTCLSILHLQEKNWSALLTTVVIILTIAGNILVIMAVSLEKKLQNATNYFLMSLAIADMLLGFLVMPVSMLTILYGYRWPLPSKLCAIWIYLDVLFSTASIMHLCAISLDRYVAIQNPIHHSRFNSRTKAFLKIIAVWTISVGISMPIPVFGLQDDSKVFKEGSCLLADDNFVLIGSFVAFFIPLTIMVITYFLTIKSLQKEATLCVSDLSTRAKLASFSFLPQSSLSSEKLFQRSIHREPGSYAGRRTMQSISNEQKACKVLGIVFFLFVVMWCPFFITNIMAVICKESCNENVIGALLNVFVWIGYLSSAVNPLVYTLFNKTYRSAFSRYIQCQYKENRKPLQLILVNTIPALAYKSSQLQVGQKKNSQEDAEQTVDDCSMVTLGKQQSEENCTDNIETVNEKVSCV
Procedure: Binding Affinity for 5-HT2 receptor
Rat cerebral cortex was homogenized in 10 volumes of 0.32 M sucrose solution and centrifuged for 10 minutes at 900×g, and the resulting supernatant fluid was again centrifuged for 20 minutes at 11,500×g. The thus obtained precipitate was re-suspended in […] Tris-HCl (pH 7.4) buffer and centrifuged for 20 minutes at 39,900×g, and the thus obtained precipitate was used as P2 fraction. The P2 fraction was incubated at 37° C. for 15 minutes in 50 mM Tris-HCl (pH 7.4) buffer containing 1 nM of [^3H] ketanserin and each of the compounds of the present invention and then filtered after the reaction using Whatman GF/B glass filter. The ^3H radioactivity on the filter was measured using a liquid scintillation counter. Non-specific binding was determined in the presence of 10 μM ketanserin, and the specific binding was calculated based on the difference. IC50 value of each compound was determined by non-linear least square regression analysis, and dissociation constant Ki was calculated from the value. The dissociation constant of 5-HT2 obtained by this test, dissociation constant of 5-HT7 obtained in Test Example 1 and their ratio are shown in the following table. As is evident from the results shown in the following table, compounds of the present invention show their affinity for 5-HT2 receptor too, but they bind more selectively to 5-HT7 receptor.

T1 sequence (P34969 whole entry): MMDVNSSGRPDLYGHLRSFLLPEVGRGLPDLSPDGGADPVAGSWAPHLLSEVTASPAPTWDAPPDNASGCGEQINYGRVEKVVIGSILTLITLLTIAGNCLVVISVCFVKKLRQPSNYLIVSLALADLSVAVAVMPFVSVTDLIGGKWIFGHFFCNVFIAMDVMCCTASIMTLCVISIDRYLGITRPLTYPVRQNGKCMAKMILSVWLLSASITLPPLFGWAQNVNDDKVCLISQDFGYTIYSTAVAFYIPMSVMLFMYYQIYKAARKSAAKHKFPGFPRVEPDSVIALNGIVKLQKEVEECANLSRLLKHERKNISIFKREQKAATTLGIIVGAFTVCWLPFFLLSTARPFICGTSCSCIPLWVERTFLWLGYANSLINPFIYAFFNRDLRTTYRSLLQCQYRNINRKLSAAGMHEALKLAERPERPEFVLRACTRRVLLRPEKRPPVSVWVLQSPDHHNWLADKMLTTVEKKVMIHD

Compound	Ki [1]	Ki [2]	pKi [1]	5-HT2/5-HT7 ([1]; ratio of dissociation constants Ki 5-HT2 / Ki 5-HT7)
COc1ccccc1N1CCN(CCCCC23CCCc4cccc(c42)NC3=O)CC1 (stereo not shown) [Compound 5, 2a-[4-{4-(2-Methoxyphenyl)piperazinyl}butyl]-2a,3,4,5-tetrahydrobenz[cd]indole-2(1H)-one]	8.9 nM	61 nM		
COC1(c2ccccc2)CCN(CCCCC23CCCc4cccc(c42)NC3=O)CC1 (stereo not shown) [Compound 56, 2a-[4-(4-Methoxy-4-phenyl-piperidyl)butyl]-2a,3,4,5-tetrahydrobenz[cd]indole-2(1H)-one]		414 nM	7.57	
O=C1Nc2cccc3c2C1(CCCCN1CCN(c2ccccn2)CC1)CCC3 (stereo not shown) [Compound 87, 2a-[4-{4-(^2-Pyridyl)piperazinyl}butyl]-2a,3,4,5-tetrahydrobenz[cd]indole-2(1H)-one]	11 nM	120 nM		11.0
